In US10604513B2, “Pyridone derivative comprising heteroatomic ring butane substituent, for treating fibrosis and inflammatory diseases” (SHIJIAZHUANG SAGACITY NEW DRUG DEVELOPMENT CO., LTD., priority 2016, dated 2020):

Key:
[1] = system: endotoxin (LPS)-induced TNF-α in rat blood; assay: Effect of compounds on endotoxin (LPS)-induced TNF-α in rat blood in vitro; type: cell-based, Sprague Dawley rats; details: for inhibition at 500 µM: tested concentration of compound 0.5 Mm (footnote *); for inhibition at 500 µM / inhibition at 100 µM: LPS 100 μg/mL, rat blood, 5 h; for inhibition of TNF-α level induced by LPS (in words): compared with Pirfenidone; for inhibition at 100 µM: tested concentration of compound 0.1 mM
Protocol: Main task: evaluation on effect of compounds on endotoxin (LPS)-induced TNF-α in rat blood in vitro
Experimental purpose: testing effect of compounds on endotoxin (LPS)-induced TNF-α in rat blood in vitro, and evaluate effect of compounds on endotoxin (LPS)-induced TNF-α in rat blood in vitro
Sprague Dawley rats (male, 210-260 g, Shanghai Slac Laboratory Animal CO. LTD) Rat TNF-alpha Quantikine ELISA Kit (R&D, #SRTA00)
A solution of the compound was prepared (5 mM or 1 mM), 40 μL was added into a 48-well cell culture plate, respectively (the final concentration was 0.5 or 0.1 mM). The rats were hocussed with isoflurane and blood was collected from the abdominal aorta (Heparin anticoagulant). The blood was added into a 48-well cell culture plate (320 μL per well) containing the compounds to be tested. And then the 48-well cell culture plate was incubated at 37° C. After 30 min, the plate was added with 40 μL LPS (the final concentration was 100 μg/mL), and then were incubated at 37° C. after mixed. After 5 h, the 48-well plate was taken out and the blood was transferred into 1.5 mL centrifuge tubes and centrifuged in the centrifugal machine (4,500 rpm, 4° C., 5 min). The upper plasma was separated and kept portions (20 μL per well) into 96-well sample plate, and then sharp-frozen and preserved at refrigerator (−80° C.). The second day, the TNF-α level on the blood samples was tested by using R&D ELISA kits according to the kit specification. The data was analyzed by EXCEL and Prism.

[2] = system: SD rat pulmonary fibrosis induced by Bleomycin; assay: Efficacy trial in vivo: SD rat pulmonary fibrosis induced by Bleomycin; details: for improving tissue damage in the area and margin of pulmonary fibrosis lesions: doses per Table 5, FIGS. 1-4; for efficacy compared with the reference compound Pirfenidone: oral, 14 days
From the text: Experimental purpose: test preventive therapeutic effects of compounds on SD rat pulmonary fibrosis induced by Bleomycin
Model: SD rat pulmonary fibrosis on the left lung; pulmonary fibrosis modelled by injecting Bleomycin into rat trachea
Molding agent: Bleomycin (BLM)
1 ? experimental grouping: efficacy trial for twice, besides common modeling group and Pirfenidone group as control reference, tested compounds were divided into […], i.e. model group (Group -1, n=7, Vehicle), control reference drug (group-2, n=7, Pirfenidone); tested compound WX001 group (Group-3, n=7), tested compound WX002 high dosage group (Group-4, n=7), tested compound WX002 low dosage group (Group-5, n=7) (Table 5)
2 ? Drug administration: Orally administering on the day the model was established, twice a day and administration for 14 day continuously 3 ? Physiological observation of experimental animal: detecting changes in animal weight (test weight before administration every day); detecting animal death rate during test period 4 ? euthanasia of animal after 14 days, formalin was injected into left lung to fix, and test volume and weight of left lung after injection and then test Lung Pathology (Table 6)
Test Results of Experiment: Test of tissue pathology of left lung: pathological evaluation of H&E dye: 1) pathological changes of left lung terminal bronchiole, 2) pathological changes of left lung pulmonary arteriole; pathological evaluation of Masson Thrichrome dye: 3) area of left lung pulmonary fibrosis, 4) score of left lung pulmonary fibrosis.

| SMILES | inhibition at 500 µM [1] [%] | inhibition of TNF-α level induced by LPS (in words) ([1]; 0.1 mM as final concentration) | inhibition at 100 µM [1] [%] | also measured |
| --- | --- | --- | --- | --- |
| Cc1ccc(=O)n(-c2ccccc2)c1 [Pirfenidone, reference compound] | 51.4 | – | – | – |
| CC1(c2ccc(=O)n(-c3ccccc3)c2)COC1 [WX001] | 86.3 | – | – | improving tissue damage in the area and margin of pulmonary fibrosis lesions ([2]; oral twice a day for 14 days): good effect; inhibition of TNF-α level induced by LPS (in words) ([1]; 0.5 mM): significant inhibition |
| CC1(c2ccc(=O)n(-c3ccsc3)c2)COC1 [WX002] | – | significant inhibition | 74.6 | efficacy compared with the reference compound Pirfenidone ([2]; low dose of 50 mpk group): better efficacy than Pirfenidone; preventing the formation of pulmonary fibrosis ([2]; oral twice a day for 14 days, FIG. 5): good effect; improving tissue damage in the area and margin of pulmonary fibrosis lesions ([2]; oral twice a day for 14 days): good effect; efficacy compared with the reference compound Pirfenidone ([2]; same dose of 100 mpk group): better efficacy than Pirfenidone |
| CC1(c2ccc(=O)n(-c3csc(Cl)c3)c2)COC1 [WX003] | – | significant inhibition | 84.7 | – |
| Cc1cc(-n2cc(C3(C)COC3)ccc2=O)cs1 [WX004] | – | significant inhibition | 89.5 | – |
| CC1(c2ccc(=O)n(-c3cscn3)c2)COC1 [WX005] | – | – | 61.6 | – |
| O=c1ccc(C2(O)COC2)cn1-c1ccsc1 [WX009] | 51.5 | – | – | – |
| O=c1ccc(C2(F)COC2)cn1-c1ccsc1 [WX011] | – | significant inhibition | 78.8 | – |
